Assay results taken from the supplement of paper PMC10307832.

Tests used:
Experiment in all cases: relative viability (nuclei count vs DMSO), 5 days (fraction); higher = more cells survive
[1] = compound: CCc1c2c(nc3ccc(OC(=O)N4CCC(N5CCCCC5)CC4)cc13)-c1cc3c(c(=O)n1C2)COC(=O)[C@]3(O)CC [Irinotecan] + COc1cc2c(Oc3ccc(NC(=O)C4(C(=O)Nc5ccc(F)cc5)CC4)cc3F)ccnc2cc1OCCCN1CCOCC1 [Foretinib] (partner 0.25 µM)
How it was run: (§1)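 After 5 days of treatment, lung cancer cells in 1536-well plates were fixed and stained in a single step (final 0.05% Triton X-100, 1% formaldehyde, 1 ug/ml Hoechst) and their nuclei counted on 4× images. Treatment had been applied by pin tool the day after seeding as one drug alone or as a fixed anchor-drug dose with five library-drug doses (not always all listed) in √10 steps. Relative viability is the nuclei count of treated wells divided by that of vehicle wells, and values are medians of duplicate plates.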

[2] = compound: Cn1cc(-c2cnc3ccc4ccc(CS(=O)(=O)NCc5ccccn5)cc4c(=O)c3c2)cn1 [MK-8033] + C[C@]1(O)C[C@@H](c2nc(-c3ccc4ccc(-c5ccccc5)nc4c3)c3c(N)nccn32)C1 [Linsitinib] (partner 1 µM)
How it was run: as §1

[3] = compound: Cn1cc(-c2cnc3ccc4ccc(CS(=O)(=O)NCc5ccccn5)cc4c(=O)c3c2)cn1 [MK-8033] + N=C(N)NC(=N)NCCc1ccccc1 [Phenformin] (partner 250 µM)
How it was run: as §1

[4] = compound: CCc1c2c(nc3ccc(OC(=O)N4CCC(N5CCCCC5)CC4)cc13)-c1cc3c(c(=O)n1C2)COC(=O)[C@]3(O)CC [Irinotecan] + Nc1ncn([C@H]2C[C@H](O)[C@@H](CO)O2)c(=O)n1 [Decitabine] (partner 2 µM)
How it was run: as §1

UMC-11
relative viability ([1]; first compound 0.6325 µM): 0.704
relative viability ([1]; first compound 2 µM): 0.518
relative viability ([1]; first compound 6.325 µM): 0.337
relative viability ([1]; first compound 20 µM): 0.237
relative viability ([2]; first compound 0.02 µM): 0.973
relative viability ([2]; first compound 0.06325 µM): 0.739
relative viability ([2]; first compound 0.2 µM): 0.974
relative viability ([2]; first compound 0.6325 µM): 0.969
relative viability ([2]; first compound 2 µM): 0.979
relative viability ([3]; first compound 0.02 µM): 0.323
relative viability ([3]; first compound 0.06325 µM): 0.258
relative viability ([3]; first compound 0.2 µM): 0.312
relative viability ([3]; first compound 2 µM): 0.266
relative viability ([4]; first compound 0.6325 µM): 0.589
relative viability ([4]; first compound 2 µM): 0.461
relative viability ([4]; first compound 6.325 µM): 0.347
relative viability ([4]; first compound 20 µM): 0.2
